From article PMC2719696, “Kinetics and Cellular Site of Glycolipid Loading Control the Outcome of Natural Killer T Cell Activation” (Immunity, 2009)

Biological target: T1, mCD1d (Mus musculus, UniProt P11609)
T1 construct: host or cells: JAWS II (C57BL/6.Trp53-/- derived dendritic cell line)
T1 sequence (P11609 22-336): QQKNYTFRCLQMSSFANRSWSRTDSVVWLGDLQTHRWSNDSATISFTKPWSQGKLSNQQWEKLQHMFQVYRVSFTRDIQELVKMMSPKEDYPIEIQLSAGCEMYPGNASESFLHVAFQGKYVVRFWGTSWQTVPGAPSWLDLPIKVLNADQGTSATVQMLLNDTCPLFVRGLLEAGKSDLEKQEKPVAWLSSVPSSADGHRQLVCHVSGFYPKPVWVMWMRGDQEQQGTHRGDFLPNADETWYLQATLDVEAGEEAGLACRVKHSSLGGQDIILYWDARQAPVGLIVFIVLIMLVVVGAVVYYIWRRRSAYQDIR
T1 sequence (P01887 21-119 partner): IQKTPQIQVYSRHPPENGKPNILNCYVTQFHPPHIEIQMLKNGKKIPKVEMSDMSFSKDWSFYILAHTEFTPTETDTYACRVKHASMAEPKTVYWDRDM
Assay: Confocal microscopy of L363 staining in JAWS II cells (surface and permeabilized)
Format: cell-based
Conditions: for L363 surface staining of intact cells (confocal): 100 nM glycolipid, 1, 4 or 16 hr; for site of L363 staining in permeabilized cells: 1 hr incubation, co-stained for LAMP-1
Experimental: To visualize the kinetics and sites of mCD1d loading by αGalCer analogs in live cells, we analyzed intact JAWS II cells for surface staining with mAb L363 after 1, 4, or 16 hr of incubation with αGalCer-C26:0 or with either of two Th2 cell-type cytokine-biasing analogs (αGalCer-C20:2 or -C10:0) (Figure 4A). Strong staining of the plasma membrane was seen after 16 hr of incubation in all cases. […] To image earlier steps in glycolipid loading, we permeabilized and fixed cells prior to staining with L363 and with an antibody to the late endosomal and lysosomal marker LAMP-1 (Figure 4A). […] At 4 hr, these complexes began to colocalize with LAMP-1, and only at 16 hr could clear surface staining be seen along with the persistent intracellular staining in LAMP-1^+ compartments (Figure 4A).
Figure 4 Cell Surface versus Intracellular Loading of mCD1d with Different αGalCer Analogs (A) On the left, surface accumulation of CD1d-αGalCer complexes was studied with JAWS II cells harvested after incubation with the indicated glycolipids for 1, 4, or 16 hr and then stained without permeabilization with mAb L363 (red). Cells were then fixed, stained with DAPI for nuclei visualization (blue), and analyzed by confocal microscopy. On the right, the intracellular formation and trafficking of CD1d-αGalCer complexes were analyzed by treatment of JAWS II cells with αGalCer analogs for 1, 4, and 16 hr followed by fixation and permeabilization. The cells were stained for CD1d-αGalCer complexes (L363, red), late endosomes and lysosomes (anti-LAMP-1, green), and nuclei (DAPI, blue). Results are representative of three separate experiments. The scale bar represents 10 μm. (B) Murine iNKT cell hybridoma cells (DN3A4.1-2) were stimulated with αGalCer analogs. As APCs for these stimulations, we used A20 cells transfected with wild-type CD1d (CD1d.WT) or cytoplasmic-tail-deleted CD1d (CD1d.TD). Supernatant concentrations of IL-2 release were determined after 12 hr. IL-2 production over a range of concentrations is shown for αGalCer-C26:0 and two analogs that produce a Th2 cell-type cytokine bias (αGalCer-C20:2 and -PGB1).
JAWS II cells were incubated at 37°C with 100 nM glycolipids for various times as indicated. For surface staining, live cells were harvested and washed extensively with PBS, resuspended in PBS + 1% BSA + 0.1% NaN3, stained on ice with 10 μg/ml Alexa Fluor 647-conjugated mAb L363 for 30 min, and lastly washed extensively and fixed with 4% paraformaldehyde. Cells were washed with PBS and settled onto poly-L-lysine-coated coverslips for 30 min and mounted with ProLong Gold with DAPI mounting medium (Invitrogen). For intracellular staining, JAWS II cells grown on glass coverslips were fixed in 4% paraformaldehyde, permeabilized with 0.05% Triton X-100 for 5 min, and stained with 10 μg/ml Alexa Fluor 647-conjugated L363 and FITC-conjugated anti-LAMP-1. Coverslips were washed and mounted. Confocal images were obtained with a Leica SP2 AOBS confocal microscope (Leica Microsystems). For colocalization of αGalCer/mCD1d complexes with ganglioside GM1-enriched plasma membrane lipid rafts, JAWS II cells were incubated for 18 hr at 37°C in complete medium without or with 100 nM of glycolipids. […] We performed quantitative analysis of colocalization by selecting 20–25 random cells in each group and determining a Pearson correlation coefficient for the distribution of pixel densities for K253 or L363 fluorescence compared to cholera toxin B-specific fluorescence. […]

Structure (SMILES)	L363 surface staining of intact cells (confocal)	site of L363 staining in permeabilized cells
CCCCCC=CCC=CCCCCCCCCCC(=O)NC(COC1OC(CO)C(O)C(O)C1O)C(O)C(O)CCCCCCCCCCCCCC (centres unmarked) [αGalCer-C20:2]	showed L363 staining at earlier time points	L363 staining was observed at the plasma membrane
CCCCCCCCCCCCCCC(O)C(O)C(COC1OC(CO)C(O)C(O)C1O)NC(=O)CCCCCCCCC (centres unmarked) [αGalCer-C10:0]	showed L363 staining at earlier time points	L363 staining was observed at the plasma membrane
CCCCCCCCCCCCCCCCCCCCCCCCCC(=O)NC(COC1OC(CO)C(O)C(O)C1O)C(O)C(O)CCCCCCCCCCCCCC (centres unmarked) [αGalCer-C26:0, reference compound]	–	observed only in a punctate intracellular distribution
